Bridge positions count the residues as written; N and C are the ends. Peptide text beside a SMILES is read from it.
Columns and labels:
Format in all cases: physicochemical
[1] = Liposome centrifugation assay, POPG liposomes; conditions: LUVs extruded through 0.1 μm filters, 10 mM HEPES pH 7.4, 150 mM NaCl; 10 μM toxin, 1 h room temperature, 30 min at 100,000 g; unbound toxin in supernatant by RP-HPLC; fit to partition equilibrium equation
Experimental: (§1) To investigate whether the micelle-binding interface identified by NMR-CSM faithfully reports on the lipid-binding interface of the peptide we used a previously reported liposome centrifugation assay[30] to study the interaction between VSTx1 and phospholipids with different head groups. VSTx1 was incubated with liposomes of different composition, then the liposomes were pelleted using ultracentrifugation and the amount of unbound VSTx1 in the supernatant was determined using reverse-phase (RP) HPLC (Fig. 4a,b). Partition coefficients (Kp) for binding of VSTx1 to liposomes were calculated by fitting to the partition equilibrium equation (see Eqn (3) in Materials and Methods). The Kp for binding to 1-palmitoyl-2-oleoyl-sn-glycero-3-phosphoglycerol (POPG) liposomes was 2.4 × 10^5 while the Kp values for binding to POPC or 1-palmitoyl-2-oleoyl-sn-glycero-3-phosphoethanolamine (POPE) liposomes were close to 0 (both <10^2) (Fig. 4e).
Large unilamellar vesicles (LUVs) were prepared by drying lipids (POPG and/or POPC, 25 mg/mL) under nitrogen gas, drying the lipid pellet under vacuum, and resuspending the lipids by vortexing for 1 h in an aqueous buffer containing 10 mM HEPES pH 7.4, and 150 mM NaCl. Vesicles were extruded 20 times using 0.1 μm polycarbonate filters (Avanti Polar Lipids, Inc.). Aqueous solutions of the toxin (10 μM) were incubated with varying amounts of vesicles for 1 h at room temperature, then the vesicles were centrifuged for 30 min at 100,000 g before the toxin concentration in the aqueous phase was determined. Aqueous concentrations of VSTx1 were quantified by RP-HPLC using a monolithic C18 column (4.6 × 100 mm). The toxin was eluted with a linear gradient of 10–50% solvent B (0.046% TFA in acetonitrile) in solvent A (0.05% TFA in water) over 10 min at a flow rate of 3 ml/min. The partition coefficients (Kp) for the binding of VSTx1 to liposomes were calculated by fitting to the partition equilibrium equation: […]

[2] = Liposome centrifugation assay, POPC liposomes; conditions: LUVs, 10 mM HEPES pH 7.4, 150 mM NaCl; 10 μM toxin, 1 h room temperature, 30 min at 100,000 g; supernatant by RP-HPLC; close to 0
Experimental: as §1, with “The Kp for binding to 1-palmitoyl-2-oleoyl-sn-glycero-3-phosphoglycerol (POPG) liposomes was 2.4 × 10^5 while the Kp values for binding to POPC or 1-palmitoyl-2-oleoyl-sn-glycero-3-phosphoethanolamine (POPE) liposomes were close to 0 (both <10^2) (Fig. 4e).” left out
(§2) Large unilamellar vesicles (LUVs) were prepared by drying lipids (POPG and/or POPC, 25 mg/mL) under nitrogen gas, drying the lipid pellet under vacuum, and resuspending the lipids by vortexing for 1 h in an aqueous buffer containing 10 mM HEPES pH 7.4, and 150 mM NaCl. […] Aqueous solutions of the toxin (10 μM) were incubated with varying amounts of vesicles for 1 h at room temperature, then the vesicles were centrifuged for 30 min at 100,000 g before the toxin concentration in the aqueous phase was determined. Aqueous concentrations of VSTx1 were quantified by RP-HPLC using a monolithic C18 column (4.6 × 100 mm). […]

[3] = Liposome centrifugation assay, POPE liposomes; conditions: 10 μM toxin, 1 h room temperature, 30 min at 100,000 g, supernatant by RP-HPLC, close to 0
Experimental: as §1, with “The Kp for binding to 1-palmitoyl-2-oleoyl-sn-glycero-3-phosphoglycerol (POPG) liposomes was 2.4 × 10^5 while the Kp values for binding to POPC or 1-palmitoyl-2-oleoyl-sn-glycero-3-phosphoethanolamine (POPE) liposomes were close to 0 (both <10^2) (Fig. 4e).” left out
as §2

[4] = Liposome centrifugation assay, liposomes with POPG content reduced by 25%; conditions: 10 mM HEPES pH 7.4, 150 mM NaCl, 10 μM toxin, 1 h room temperature, 30 min at 100,000 g, supernatant by RP-HPLC
Experimental: as §1, with “The Kp for binding to 1-palmitoyl-2-oleoyl-sn-glycero-3-phosphoglycerol (POPG) liposomes was 2.4 × 10^5 while the Kp values for binding to POPC or 1-palmitoyl-2-oleoyl-sn-glycero-3-phosphoethanolamine (POPE) liposomes were close to 0 (both <10^2) (Fig. 4e).” left out
as §2

CSCC[C@@H]1NC(=O)[C@H](Cc2ccccc2)NC(=O)[C@H](CCCCN)NC(=O)CNC(=O)[C@@H](NC(=O)[C@H](CCC(=O)O)NC(=O)[C@@H](N)CO)CSSC[C@@H]2NC(=O)[C@@H]3CSSC[C@@H](C(=O)N[C@H](C(=O)N[C@@H](CC(C)C)C(=O)N[C@@H](C)C(=O)N[C@@H](CO)C(=O)N4CCC[C@H]4C(=O)N[C@@H](Cc4ccccc4)C(=O)O)C(C)C)NC(=O)[C@H](Cc4c[nH]c5ccccc45)NC(=O)[C@H](CCCCN)NC(=O)[C@H](Cc4c[nH]c5ccccc45)NC(=O)[C@H](CCCNC(=N)N)NC(=O)[C@H](CO)NC(=O)[C@H](CO)NC(=O)[C@H](CSSC[C@H](NC(=O)[C@H](CCCCN)NC(=O)[C@H](Cc4c[nH]c5ccccc45)NC1=O)C(=O)N[C@@H](CCCCN)C(=O)N[C@@H](CC(N)=O)C(=O)N[C@@H](CO)C(=O)N[C@@H](CC(N)=O)C(=O)N[C@@H](CC(=O)O)C(=O)N3)NC(=O)[C@H](C(C)C)NC(=O)[C@H](CC(C)C)NC(=O)[C@H](CC(=O)O)NC(=O)[C@H](CCCCN)NC2=O [VSTx1] (H-SECGKFMWKCKNSNDCCKDLVCSSRWKWCVLASPF-OH; disulfide 3-17, 10-22, 16-29)
Partition coefficient (Kp) for binding to POPG liposomes [1]: 2.4 × 10^5 | Partition coefficient (Kp) for binding to POPC liposomes [2]: < 10^2 | Partition coefficient (Kp) for binding to POPE liposomes [3]: < 10^2 | Partition coefficient (Kp), POPG content of liposomes reduced by 25% [4]: 0.18 × 10^5

Reference: article PMC5039624 (Scientific Reports, 2016)
